Experimental findings from US20230165970A1, “COMPOSITIONS AND METHODS FOR THE TREATMENT OF BACTERIAL INFECTIONS” (priority 2017, published 2023) are described below.

The subject of one experiment is Ec 2469. It is filed as cell-based, Escherichia coli. In a few lines: (§1)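 MHA colonies → 0.85% saline, OD600 ~0.1; 2-fold serial dilutions ×8 or ×12; conjugates in RPMI B; 35° C, 16-20 h. Pa LES431 ± 50% heat-inactivated FBS.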
In a further experiment the test system is Ec 25922. It is filed as cell-based, Escherichia coli. Conditions: for MIC in RPMI EC 25922: pH 7.4. In a few lines:
as §1

The subject of experiment [1] is Ab AB58705 (COL^R) IpxD, mut. (no LPS). It is filed as cell-based, Acinetobacter baumannii. Conditions: media CA-MHB.
The next experiment deals with Ab 8990 (COL^R). It is filed as cell-based, Acinetobacter baumannii. In a few lines: as §1
For a further experiment, the system named is Ab AB5075. It is filed as cell-based, Acinetobacter baumannii. The conditions noted are these: for MIC in RPMI AB 5075: pH 7.4. In a few lines: as §1
For experiment [2], the system named is A. baumannii AB5075. Nature of the experiment: Lethal A. baumannii lung infection (mouse pneumonia) model, survival. Conditions: mouse pneumonia model vs. AB5075; 5 mg/kg, twice intravenously, t=+1 h and +4 h; n=5. It is filed as in vivo, Acinetobacter baumannii.
The subject of experiment [3] is A. baumannii AB5075. In kind it is cell-based. The procedure: (§2) Overnight stationary-phase cultures were centrifuged at 3,500×g for 10 min at room temperature and resuspended in 1×PBS to an optical density at 600 nm (OD600) of 0.4 (1×10^8 colony forming units [CFU]/ml) in RPMI with L-glutamine and phenol red (Life Technologies). Bacteria were diluted 1:25 in RPMI ([…]) and 10 ul added to wells of a non-binding 96-well plate (Corning 3641) containing 80 ul of 50% hirudin anti-coagulated blood (complement active) in RPMI. […] MBC was defined as the minimum conjugate concentration required for bacterial clearance (Table 8A and Table 8B). An untreated growth control (40% blood, 0 ug/ml conjugate) was included in all assays as a growth comparator.
(§3) MBC was defined as the minimum compound concentration required for complete bacterial clearance (Table 18).
(§4) In most cases, 2-4 fold improvements in antibacterial activity for the conjugates are observed in the presence of complement active human blood.

A further experiment relates to P. aeruginosa PAO1. In kind it is cell-based. The procedure: as §2, §3, §4
For the next experiment, the system named is E. coli ATCC 25922. It is filed as cell-based. On the procedure:
as §2, §3, §4

Values after ≈ are worked out from the molar mass of the structure shown. Where two headings read alike, the source gives them in different places. *1 amine or outer side, *2 acyl side, *3 side chain or, on linkers, in order; H or OH if unused. Where a SMILES comes first, the peptide text is derived from it. Bridges are numbered along the chain shown (N, C = ends). Roman numbers before positions name the chains, in order. [ ]: non-standard residue; d: D form. The star is where a group is joined. X5 = C#CCOCCOCCOCCOCCN1C[C@@H](C(=O)[*:1])[C@H](C(=O)[*:2])C1; X2 = O=C([C@@H](N[*:1])[C@H](O)CCC(F)(F)F)[*:2]; Propargyl(OCH2CH2)4CO = C#CCOCCOCCOCCOCCC(=O)*; X3 = CCCCC[C@@H](O)[C@H](N[*:1])C(=O)[*:2]; azaDab = NCCN(N[*:1])C(=O)[*:2]; Aoc(2) = CCCCCC[C@H](N)C(=O)O; hLeu = CC(C)CC[C@H](N)C(=O)O; Nle = CCCC[C@H](N)C(=O)O; Dab = NCC[C@H](N)C(=O)O; azaGly = NNC(=O)O

One may read the MIC as the lowest concentration that inhibits growth of the organism. Regarding `C#CCOCCOCCOCCOCCC(=O)N[C@@H](CCC(C)C)C(=O)N[C@@H](CCN)C(=O)N[C@H](C(=O)NNC(=O)N[C@H]1CCNC(=O)[C@H]([C@@H](C)O)NC(=O)[C@H](CCN)NC(=O)[C@H](CCN)NC(=O)[C@H](CC(C)C)NC(=O)[C@@H](Cc2ccccc2)NC(=O)[C@H](CCN)NC1=O)[C@H](O)CCCCC` [Int-116] ({Propargyl(OCH2CH2)4CO}-[hLeu][Dab][X3][azaGly][Dab][Dab][dF]L[Dab][Dab]T; lactam 5-C), the minimal inhibitory concentration (MIC) in the experiment on Ec 2469 is 2 µg/mL (≈ 1.38 µM); against Ec 25922, 2 µg/mL (≈ 1.38 µM); in [1] it was 64 µg/mL (≈ 44.2 µM); with Ab 8990 (COL^R) (Ab 8990 (COL^R), media CA-MHB) it was more than 128 µg/mL; with Ab AB5075, 1 µg/mL (≈ 0.691 µM). The “MIC in RPMI EC 25922” value against Ec 25922 was 1.05 µg/mL (≈ 0.726 µM). Also, the “MIC in RPMI AB 5075” value in the experiment with Ab AB5075 was determined as 1.05 µg/mL (≈ 0.726 µM). In addition, the “protection (survival over 5 days), FIG. 118” value in the experiment on A. baumannii AB5075 [2] is reported as 100%. Moreover, the “MBC in blood AB 5075” value against A. baumannii AB5075 [3] was found to be 0.05 µg/mL (≈ 0.0346 µM). For the same compound, the “MBC in blood PA 01” value with P. aeruginosa PAO1 was more than 0.2 µg/mL. In addition, in the experiment on E. coli ATCC 25922, the “MBC in blood EC 25922” value came to 0.2 µg/mL (≈ 0.138 µM).
For `C#CCOCCOCCOCCOCCC(=O)N[C@@H](CCCCCC)C(=O)N[C@@H](CCN)C(=O)N[C@H](C(=O)N[C@@H](CCN)C(=O)N[C@H]1CCNC(=O)[C@H]([C@@H](C)O)NC(=O)[C@H](CCN)NC(=O)[C@H](CCN)NC(=O)[C@H](CC(C)C)NC(=O)[C@@H](Cc2ccccc2)NC(=O)[C@H](CCN)NC1=O)[C@H](O)CCC(F)(F)F` [Int-118] ({Propargyl(OCH2CH2)4CO}-[Aoc(2)][Dab][X2][Dab][Dab][Dab][dF]L[Dab][Dab]T; lactam 5-C), the minimal inhibitory concentration (MIC) against Ec 2469 worked out at 1 µg/mL (≈ 0.654 µM); in the experiment on Ec 25922 it was 1 µg/mL (≈ 0.654 µM); in the experiment on Ab 8990 (COL^R) it was 128 µg/mL (≈ 83.7 µM); with Ab AB5075, 1 µg/mL (≈ 0.654 µM). Also, the “MIC in RPMI EC 25922” value against Ec 25922 amounted to 0.95 µg/mL (≈ 0.621 µM). Also, the “MIC in RPMI AB 5075” value with Ab AB5075 worked out at 0.95 µg/mL (≈ 0.621 µM). Moreover, the “protection (survival over 5 days), FIG. 118” value in the experiment with A. baumannii AB5075 [2] turned out to be 40%. The “MBC in blood AB 5075” value against A. baumannii AB5075 [3] turned out to be 0.025 µg/mL (≈ 0.0164 µM). Further, the “MBC in blood PA 01” value in the experiment on P. aeruginosa PAO1 is more than 0.2 µg/mL. For the same compound, in the experiment with E. coli ATCC 25922, the “MBC in blood EC 25922” value was determined as 0.05 µg/mL (≈ 0.0327 µM).
As for `C#CCOCCOCCOCCOCCN1C[C@@H](C(=O)N[C@@H](CCCC)C(=O)N[C@@H](CCN)C(=O)N[C@H](C(=O)NNC(=O)N[C@H]2CCNC(=O)[C@H]([C@@H](C)O)NC(=O)[C@H](CCN)NC(=O)[C@H](CCN)NC(=O)[C@H](CC(C)C)NC(=O)[C@@H](Cc3ccccc3)NC(=O)[C@H](CCN)NC2=O)[C@@H](C)O)[C@H](C(=O)N[C@@H](CCCC)C(=O)N[C@@H](CCN)C(=O)N[C@H](C(=O)NNC(=O)N[C@H]2CCNC(=O)[C@H]([C@@H](C)O)NC(=O)[C@H](CCN)NC(=O)[C@H](CCN)NC(=O)[C@H](CC(C)C)NC(=O)[C@@H](Cc3ccccc3)NC(=O)[C@H](CCN)NC2=O)[C@@H](C)O)C1` [Int-120] (I: [Nle][Dab]T[azaGly][Dab][Dab][dF]L[Dab][Dab]T / II: [Nle][Dab]T[azaGly][Dab][Dab][dF]L[Dab][Dab]T; lactam I:5-I:C, II:5-II:C; linker I:N-II:N via X5), the minimal inhibitory concentration (MIC) was 2 µg/mL (≈ 0.767 µM) in the experiment with Ec 2469 (Ec 2469, media CA-MHB); 0.25 µg/mL with Ec 25922 (Ec 25922 + FBS (50%, heat-inactivated), media CA-MHB); 2 µg/mL (≈ 0.767 µM) against Ec 25922 (Ec 25922, media CA-MHB); 4 µg/mL (≈ 1.53 µM) in [1]; more than 128 µg/mL against Ab 8990 (COL^R) (Ab 8990 (COL^R), media CA-MHB); 2 µg/mL (≈ 0.767 µM) in the experiment on Ab AB5075 (Ab AB5075, media CA-MHB).
Regarding `C#CCOCCOCCOCCOCCC(=O)N[C@@H](CCC(C)C)C(=O)N[C@@H](CCN)C(=O)N[C@H](C(=O)NN(CCN)C(=O)N[C@H]1CCNC(=O)[C@H]([C@@H](C)O)NC(=O)[C@H](CCN)NC(=O)[C@H](CCN)NC(=O)[C@H](CC(C)C)NC(=O)[C@@H](Cc2ccccc2)NC(=O)[C@H](CCN)NC1=O)[C@@H](C)O` [Int-127] ({Propargyl(OCH2CH2)4CO}-[hLeu][Dab]T[azaDab][Dab][Dab][dF]L[Dab][Dab]T; lactam 5-C), the MIC against Ec 2469 is 1 µg/mL (≈ 0.697 µM); against Ec 25922 it was 1 µg/mL (≈ 0.697 µM); in [1], 64 µg/mL (≈ 44.6 µM); against Ab 8990 (COL^R) (Ab 8990 (COL^R), media CA-MHB), more than 128 µg/mL; against Ab AB5075, 2 µg/mL (≈ 1.39 µM). In the experiment on Ec 25922, the “MIC in RPMI EC 25922” value was 1.00 µg/mL (≈ 0.697 µM). Further, the “MIC in RPMI AB 5075” value against Ab AB5075 came out at 1.00 µg/mL (≈ 0.697 µM). For the same compound, the “MBC in blood AB 5075” value against A. baumannii AB5075 [3] is 0.1 µg/mL (≈ 0.0697 µM). The “MBC in blood PA 01” value in the experiment with P. aeruginosa PAO1 was determined as 0.1 µg/mL (≈ 0.0697 µM). The “MBC in blood EC 25922” value in the experiment with E. coli ATCC 25922 worked out at 0.025 µg/mL (≈ 0.0174 µM).
Consider `C#CCOCCOCCOCCOCCC(=O)N[C@@H](CCCCCC)C(=O)N[C@@H](CCN)C(=O)N[C@H](C(=O)NN(CCN)C(=O)N[C@H]1CCNC(=O)[C@H]([C@@H](C)O)NC(=O)[C@H](CCN)NC(=O)[C@H](CCN)NC(=O)[C@H](CC(C)C)NC(=O)[C@@H](Cc2ccccc2)NC(=O)[C@H](CCN)NC1=O)[C@@H](C)O` [Int-129] ({Propargyl(OCH2CH2)4CO}-[Aoc(2)][Dab]T[azaDab][Dab][Dab][dF]L[Dab][Dab]T; lactam 5-C), for which the MIC against Ec 2469 came out at 2 µg/mL (≈ 1.38 µM); against Ec 25922 it was 1 µg/mL (≈ 0.691 µM); against Ab 8990 (COL^R), 128 µg/mL (≈ 88.4 µM); with Ab AB5075 it was 2 µg/mL (≈ 1.38 µM). Moreover, the “protection (survival over 5 days), FIG. 119” value in the experiment with A. baumannii AB5075 [2] was determined as 60%.
